The values below come from publication PMC11799252, “The differentiation state of small intestinal organoid models influences prediction of drug-induced toxicity” (Frontiers in Cell and Developmental Biology, 2025).

Where two headings read alike, the source gives them in different places.

The test system of data set [1] is proliferative duodenum organoids. Nature of the data set: Cell viability (Cell Titer Glo 3D, ATP) in proliferative organoid model. As to conditions: for IC50: Homo sapiens, 72 h, read-out: IC50 (μM) Prolif. As to the method: (§1) Organoids were grown for 7–10 days then dissociated using TrypLE™ Express Enzyme, as described above. Single cells were resuspended in BME at a density of 5–6 × 10^5 cells/mL on ice and plated as 5 μL/well domes in clear-bottom 96-well plates (Corning). The domes were cured for 10–15 min at 37°C and overlaid with 100 μL of growth media replaced every 2–3 days.
(§2) Compounds were administered after 5–6 days in growth medium for proliferative organoids or after an additional 4 days in differentiation medium for differentiated organoids. Organoid media was replaced with 90 μL fresh media immediately prior to dosing. Compounds were diluted in growth or differentiation medium and administered as a 5-fold dilution series at 5-8 concentrations with corresponding 0.5% DMSO vehicle control (1% DMSO for aspirin), at 10 μL/well in triplicate. […] After 3 days of treatment, cultures were imaged by brightfield microscopy (THUNDER DMi8 inverted light microscope with a 2.5× objective and a DFC9000 GTC camera (Leica)). Wells were precluded from analysis on visual quality control (i.e., organoid loss due to BME degradation/dislodging or insufficient seeding density) congruent with cytotoxicity analysis. An equal volume of Cell Titer Glo 3D Reagent (Promega) was added to each well as described by the manufacturer’s instructions. Luminescence was measured on EnSight and EnVision (Perkin Elmer) plate readers and normalized to on-plate vehicle controls (0.5%–1% DMSO) in corresponding growth or differentiation medium. Experiments were conducted in technical triplicates and repeated in organoids from 3 different donors (donor demographics noted in Supplementary Table S1). Normalized viability was averaged at each concentration for each donor, and mean of donors was fit to a 4-Parameter Logistic (4PL) curve using Prism (GraphPad) to estimate the half-maximal inhibitory concentration (IC50) for each compound.
(§3) To compare toxicity responses of proliferative and differentiated organoids, proliferative organoids were grown 5–6 days in OGM prior to dosing, while differentiated organoids were transitioned to ODM for an additional 4 days prior to dosing (Figure 2A). Both proliferative and differentiated organoids were incubated with compounds or a 0.5%–1% DMSO vehicle control (as indicated) for 3 days prior to measuring ATP levels as a readout for cell viability. […] Compound-treated organoid ATP readouts were normalized to vehicle controls and a half-maximal inhibitory concentration (IC50) was calculated from dose-response curves of organoid viability for five compounds across 3 donor organoid lines.
For orientation: In ATP-based viability assays light output follows the ATP content of the culture.

The subject of data set [2] is differentiated duodenum organoids. Nature of the data set: Cell viability (Cell Titer Glo 3D, ATP) in differentiated organoid model. As to conditions: for IC50: Homo sapiens, read-out: IC50 (μM) Diff. Here is the method:
as §1, §2, §3

For data set [3] the following is noted: clinical, cited from earlier work.
For data set [4] the following is noted: clinical plasma, cited from earlier work.
Data set [5] can be described thus: Cell viability (Cell Titer Glo 3D, ATP) in differentiated organoid model. To be noted: human, differentiated duodenum organoids. As to the method: as §1, §2, §3
Setting [6] is: patients, ref Peters et al., 2019.
Where [7] appears, read: ref Peters et al., 2019, 2020, Belair et al.

For orientation: IC50 means the concentration that gives 50% inhibition. As a reminder, the Cmax is the highest concentration seen after dosing. For `CN(C)C/C=C/C(=O)Nc1cc2c(Nc3ccc(F)c(Cl)c3)ncnc2cc1O[C@H]1CCOC1` [afatinib], the figures for the IC50 in data set [1] and in data set [2] were 0.036 µM and 4.16 µM, respectively. The “fold increase in IC50, differentiated vs proliferative organoids” value in data set [2] (IC50 differentiated / IC50 proliferative) was “over 100 fold”. For the same compound, the “Incidence of Diarrhea (%)” value in data set [3] (setting [6]) is recorded as 96%. Further, the Cmax in data set [4] (setting [7]) is 0.078 µM.
As for `COc1cc2c(c(OC)c1OC)-c1ccc(OC)c(=O)cc1[C@@H](NC(C)=O)CC2` [colchicine], the highest concentration (Cmax) in data set [4] (setting [7]) was 0.017 µM.
Take `CNC(=O)c1cc(Oc2ccc(NC(=O)Nc3ccc(Cl)c(C(F)(F)F)c3)cc2)ccn1` [sorafenib]: the IC50 in data set [1] was found to be 10 µM; in data set [2] it was 8.42 µM. Further, in data set [3] (setting [6]), the “Incidence of Diarrhea (%)” value is 43%. In data set [4] (setting [7]), the Cmax was 6.2 µM.
As to `CC(=O)Oc1ccccc1C(=O)O` [aspirin, Acetylsalicylic acid], the decline in viability entry in data set [1] (200 µM, proliferative organoids, 3 days) is “no decline”. For the same compound, the IC50 in data set [1] was 1770 µM; in data set [2], 626 µM. For the same compound, the decreases in viability entry is on record as “minimal” in data set [1] (below 100 µM, proliferative organoids, 3 days) and “minimal” in data set [2] (below 100 µM, differentiated organoids, 3 days). The “IC50/Cmax Prolif.” value in data set [1] (human, 3 days) is given as 65.9. Moreover, the cytotoxicity at 3 days, 200 µM in data set [5] is approximately 25%. Also, the “IC50/Cmax Diff.” value in data set [2] (human, 3 days) turned out to be 23.3. Besides, the “Incidence of Diarrhea (%)” value is listed as “less than 2%” in data set [3] (oral dosing, ref Rampal et al., 2001) and 1.8% in data set [3] (oral dosing, ref Rampal et al., 2001, listed as Aspirin). Further, the Cmax in data set [4] (high-dose oral administration, ref Nagelschmitz et al. (2014)) was 26.9 µM.
